Patent US20230150974A1 (Foghorn Therapeutics Inc., priority 2020, published 2023)

Legend:
HiBit-BRG1 = target: T1, HiBit-BRG1 (Homo sapiens, UniProt P51532); assay: HiBit-BRG1 cell-based degradation assay (Nano-Glo HiBiT Lytic Detection); settings: HeLa cells expressing HiBit-BRG1 and LgBit, 24 h; for DC50: read-out: BRG1 HiBit Degradation IC50; for Dmax: read-out: BRG1 HiBit Degradation Maximum (%)
T1 construct: expressed in transfected cells
In short: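 Percent degradation derived from lytic HiBiT signal, normalized to DMSO-treated cells and to cells given 2 μM of a known BRM/BRG1 degrader. The HeLa line stably expressed HiBit-BRG1 and LgBit; treatment lasted 24 h at 5000 cells per well.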

HiBiT-BRM = target: T2, HiBiT-BRM (Homo sapiens, UniProt P51531); assay: HiBiT-BRM cell-based degradation assay (Nano-Glo HiBiT Lytic Detection); settings: HeLa cells expressing HiBiT-BRM, 24 h; for DC50: read-out: BRM HiBit Degradation IC50
T2 construct: expressed in transfected cells
In short: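 Luminescence from HiBiT–LgBiT complementation in lysates of a stable HiBiT-BRM HeLa line measured after 24 h compound exposure. Degradation expressed as percent relative to DMSO-treated cells and cells given 2 μM of a known BRM/BRG1 degrader.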

T2 sequence (P51531 whole entry): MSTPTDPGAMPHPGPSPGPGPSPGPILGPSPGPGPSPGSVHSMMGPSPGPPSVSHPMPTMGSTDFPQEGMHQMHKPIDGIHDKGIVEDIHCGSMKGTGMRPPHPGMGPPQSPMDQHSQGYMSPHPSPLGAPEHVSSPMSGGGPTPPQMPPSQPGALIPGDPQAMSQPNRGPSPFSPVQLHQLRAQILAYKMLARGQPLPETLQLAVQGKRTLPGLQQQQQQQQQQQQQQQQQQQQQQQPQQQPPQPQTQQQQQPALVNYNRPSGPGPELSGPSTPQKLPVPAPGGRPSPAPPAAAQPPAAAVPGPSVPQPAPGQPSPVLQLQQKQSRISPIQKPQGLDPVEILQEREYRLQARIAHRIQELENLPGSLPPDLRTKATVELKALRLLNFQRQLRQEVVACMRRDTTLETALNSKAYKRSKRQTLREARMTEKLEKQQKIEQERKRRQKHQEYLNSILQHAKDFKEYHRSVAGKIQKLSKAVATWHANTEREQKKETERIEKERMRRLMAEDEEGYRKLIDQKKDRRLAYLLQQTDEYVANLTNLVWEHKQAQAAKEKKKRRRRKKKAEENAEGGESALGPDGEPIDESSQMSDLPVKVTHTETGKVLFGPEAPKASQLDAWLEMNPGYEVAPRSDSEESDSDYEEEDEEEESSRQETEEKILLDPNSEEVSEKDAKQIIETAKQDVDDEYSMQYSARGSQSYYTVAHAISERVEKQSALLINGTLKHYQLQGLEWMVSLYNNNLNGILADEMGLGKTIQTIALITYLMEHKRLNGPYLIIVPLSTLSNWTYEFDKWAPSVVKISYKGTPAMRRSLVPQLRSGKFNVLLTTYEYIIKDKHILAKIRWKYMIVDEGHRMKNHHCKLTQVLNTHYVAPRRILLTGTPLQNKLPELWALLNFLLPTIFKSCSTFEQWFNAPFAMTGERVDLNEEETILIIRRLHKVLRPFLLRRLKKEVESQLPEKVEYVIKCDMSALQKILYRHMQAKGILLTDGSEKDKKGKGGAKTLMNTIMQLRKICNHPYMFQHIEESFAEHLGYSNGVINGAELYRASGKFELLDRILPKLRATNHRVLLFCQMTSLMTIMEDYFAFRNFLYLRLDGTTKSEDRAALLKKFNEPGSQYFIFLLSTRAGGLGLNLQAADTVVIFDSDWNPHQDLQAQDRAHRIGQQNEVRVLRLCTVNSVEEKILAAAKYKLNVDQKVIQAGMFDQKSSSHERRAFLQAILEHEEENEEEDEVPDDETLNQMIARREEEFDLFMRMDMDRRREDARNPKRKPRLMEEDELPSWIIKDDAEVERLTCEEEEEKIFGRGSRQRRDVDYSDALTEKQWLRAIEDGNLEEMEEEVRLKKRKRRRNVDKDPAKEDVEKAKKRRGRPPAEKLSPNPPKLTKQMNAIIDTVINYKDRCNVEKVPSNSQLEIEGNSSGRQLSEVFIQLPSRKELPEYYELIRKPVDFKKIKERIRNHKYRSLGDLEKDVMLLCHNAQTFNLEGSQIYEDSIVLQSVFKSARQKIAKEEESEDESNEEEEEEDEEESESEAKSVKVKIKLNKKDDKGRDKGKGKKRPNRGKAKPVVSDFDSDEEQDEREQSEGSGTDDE
T1 sequence (P51532 whole entry): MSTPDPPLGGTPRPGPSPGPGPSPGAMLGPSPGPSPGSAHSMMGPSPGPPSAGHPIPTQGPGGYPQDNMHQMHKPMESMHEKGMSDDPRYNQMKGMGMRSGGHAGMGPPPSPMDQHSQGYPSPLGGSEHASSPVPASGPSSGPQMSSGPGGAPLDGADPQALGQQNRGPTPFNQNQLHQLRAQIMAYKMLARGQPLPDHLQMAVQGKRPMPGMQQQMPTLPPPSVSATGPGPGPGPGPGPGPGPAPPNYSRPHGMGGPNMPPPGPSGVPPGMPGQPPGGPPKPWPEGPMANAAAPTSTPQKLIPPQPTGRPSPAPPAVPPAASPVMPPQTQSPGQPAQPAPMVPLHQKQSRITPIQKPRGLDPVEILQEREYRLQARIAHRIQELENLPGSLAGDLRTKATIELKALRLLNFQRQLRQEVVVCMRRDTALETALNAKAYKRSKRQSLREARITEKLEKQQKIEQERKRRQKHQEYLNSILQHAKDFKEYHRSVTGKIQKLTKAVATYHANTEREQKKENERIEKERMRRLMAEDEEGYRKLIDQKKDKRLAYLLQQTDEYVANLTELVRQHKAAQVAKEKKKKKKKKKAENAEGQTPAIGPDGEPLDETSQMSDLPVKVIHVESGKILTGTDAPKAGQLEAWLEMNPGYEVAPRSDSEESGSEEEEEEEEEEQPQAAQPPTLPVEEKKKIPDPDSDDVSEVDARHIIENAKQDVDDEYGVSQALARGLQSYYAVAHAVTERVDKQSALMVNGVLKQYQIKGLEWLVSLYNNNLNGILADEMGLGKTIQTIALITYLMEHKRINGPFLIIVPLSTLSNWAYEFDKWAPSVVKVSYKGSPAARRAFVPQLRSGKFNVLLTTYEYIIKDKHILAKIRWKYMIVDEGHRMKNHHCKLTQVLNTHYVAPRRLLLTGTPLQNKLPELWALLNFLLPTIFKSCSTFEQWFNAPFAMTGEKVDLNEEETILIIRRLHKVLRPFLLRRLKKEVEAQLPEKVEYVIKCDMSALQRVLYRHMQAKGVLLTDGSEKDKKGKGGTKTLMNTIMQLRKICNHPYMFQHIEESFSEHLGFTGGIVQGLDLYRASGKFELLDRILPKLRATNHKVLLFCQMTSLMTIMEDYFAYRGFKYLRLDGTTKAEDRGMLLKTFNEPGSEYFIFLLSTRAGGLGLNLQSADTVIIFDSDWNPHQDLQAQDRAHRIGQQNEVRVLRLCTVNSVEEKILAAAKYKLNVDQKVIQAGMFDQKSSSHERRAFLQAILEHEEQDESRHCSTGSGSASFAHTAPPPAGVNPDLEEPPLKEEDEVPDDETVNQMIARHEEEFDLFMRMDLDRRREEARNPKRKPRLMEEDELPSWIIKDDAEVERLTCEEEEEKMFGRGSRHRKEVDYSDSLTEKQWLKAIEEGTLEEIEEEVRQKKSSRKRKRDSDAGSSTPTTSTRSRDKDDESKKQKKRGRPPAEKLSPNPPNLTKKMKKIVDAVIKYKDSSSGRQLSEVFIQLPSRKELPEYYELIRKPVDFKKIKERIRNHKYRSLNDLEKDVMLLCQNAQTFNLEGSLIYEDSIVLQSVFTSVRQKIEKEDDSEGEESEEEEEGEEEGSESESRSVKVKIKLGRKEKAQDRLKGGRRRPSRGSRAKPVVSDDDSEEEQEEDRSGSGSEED

Row | SMILES | DC50 (HiBit-BRG1) | Dmax (HiBit-BRG1) | DC50 (HiBiT-BRM) | BRM HiBit Degradation Maximum (%) (HiBiT-BRM)
1 | Cc1ncsc1-c1ccc(CNC(=O)[C@@H]2C[C@@H](O)CN2C(=O)[C@@H](NC(=O)CN2CCN(CCOc3cc(N4[C@@H]5CC[C@H]4CN(c4cc(-c6ccccc6O)nnc4N)C5)ccn3)CC2)C(C)(C)C)cc1 [Compound 233, (2S,4R)-1-((2S)-2-(2-(4-(2-((4-(3-(3-amino-6-(2-hydroxyphenyl)pyridazin-4-yl)-3,8-diazabicyclo[3.2.1]octan-8-yl)pyridin-2-yl)oxy)ethyl)piperazin-1-yl)acetamido)-3,3-dimethylbutanoyl)-4-hydroxy-N-(4-(4-methylthiazol-5-yl)benzyl)pyrrolidine-2-carboxamide] | > 0.1 µM | > 75% | > 0.01 µM | A (“A” indicates maximum degradation ≥75%)
2 | Cc1ncsc1-c1ccc(CNC(=O)[C@@H]2C[C@@H](O)CN2C(=O)[C@@H](NC(=O)CCCCN2CCN(CCOc3cc(N4[C@@H]5CC[C@H]4CN(c4cc(-c6ccccc6O)nnc4N)C5)ccn3)CC2)C(C)(C)C)cc1 [Compound 234, (2S,4R)-1-((2S)-2-(5-(4-(2-((4-(3-(3-amino-6-(2-hydroxyphenyl)pyridazin-4-yl)-3,8-diazabicyclo[3.2.1]octan-8-yl)pyridin-2-yl)oxy)ethyl)piperazin-1-yl)pentanamido)-3,3-dimethylbutanoyl)-4-hydroxy-N-(4-(4-methylthiazol-5-yl)benzyl)pyrrolidine-2-carboxamide] | > 1 µM | < 50% | > 0.1 µM | A (“A” indicates maximum degradation ≥75%)
3 | Cc1ncsc1-c1ccc(CNC(=O)[C@@H]2C[C@@H](O)CN2C(=O)[C@@H](NC(=O)CCN2C[C@H]3CN(CCC(=O)NCc4ccc(CCOc5cc(-c6ccccc6O)nnc5N)cc4)C[C@H]3C2)C(C)(C)C)cc1 [Compound 235, (2S,4R)-1-((2S)-2-(3-(5-(3-((4-(2-((3-amino-6-(2-hydroxyphenyl)pyridazin-4-yl)oxy)ethyl)benzyl)amino)-3-oxopropyl)hexahydropyrrolo[3,4-c]pyrrol-2(1H)-yl)propanamido)-3,3-dimethylbutanoyl)-4-hydroxy-N-(4-(4-methylthiazol-5-yl)benzyl)pyrrolidine-2-carboxamide] | > 1 µM | < 50% | > 1 µM | C (“C” indicates maximum degradation <50%)
4 | Cc1ncsc1-c1ccc(CNC(=O)[C@@H]2C[C@@H](O)CN2C(=O)[C@@H](NC(=O)CCN2CCC(OC3CCN(CCC(=O)NCc4ccc(CCOc5cc(-c6ccccc6O)nnc5N)cc4)CC3)CC2)C(C)(C)C)cc1 [Compound 236, (2S,4R)-1-((S)-2-(3-(4-((1-(3-((4-(2-((3-amino-6-(2-hydroxyphenyl)pyridazin-4-yl)oxy)ethyl)benzyl)amino)-3-oxopropyl)piperidin-4-yl)oxy)piperidin-1-yl)propanamido)-3,3-dimethylbutanoyl)-4-hydroxy-N-(4-(4-methylthiazol-5-yl)benzyl)pyrrolidine-2-carboxamide] | > 1 µM | < 50% | > 1 µM | B (“B” indicates maximum degradation ≥50%)
5 | Cc1ncsc1-c1ccc([C@H](C)NC(=O)[C@@H]2C[C@@H](O)CN2C(=O)[C@@H](c2cc(OCCN3CC(OC4CCN(C(=O)c5ccc(CCOc6cc(-c7ccccc7O)nnc6N)cc5)CC4)C3)no2)C(C)C)cc1 [Compound 237, (2S,4R)-1-((R)-2-(3-(2-(3-((1-(4-(2-((3-amino-6-(2-hydroxyphenyl)pyridazin-4-yl)oxy)ethyl)benzoyl)piperidin-4-yl)oxy)azetidin-1-yl)ethoxy)isoxazol-5-yl)-3-methylbutanoyl)-4-hydroxy-N-((S)-1-(4-(4-methylthiazol-5-yl)phenyl)ethyl)pyrrolidine-2-carboxamide] | > 0.1 µM | > 50% | > 0.01 µM | A (“A” indicates maximum degradation ≥75%)
6 | Cc1ncsc1-c1ccc(CNC(=O)[C@@H]2C[C@@H](O)CN2C(=O)[C@@H](NC(=O)CCCN2CCN(CCOc3cc(N4[C@@H]5CC[C@H]4CN(c4cc(-c6ccccc6O)nnc4N)C5)ccn3)CC2)C(C)(C)C)cc1 [Compound 242, (2S,4R)-1-((2S)-2-(4-(4-(2-((4-(3-(3-amino-6-(2-hydroxyphenyl)pyridazin-4-yl)-3,8-diazabicyclo[3.2.1]octan-8-yl)pyridin-2-yl)oxy)ethyl)piperazin-1-yl)butanamido)-3,3-dimethylbutanoyl)-4-hydroxy-N-(4-(4-methylthiazol-5-yl)benzyl)pyrrolidine-2-carboxamide] | > 1 µM | < 50% | > 0.1 µM | A (“A” indicates maximum degradation ≥75%)
7 | Cc1ncsc1-c1ccc(CNC(=O)[C@@H]2C[C@@H](O)CN2C(=O)[C@@H](NC(=O)CN2CCC(O[C@H]3C[C@H](Oc4cc(N5[C@@H]6CC[C@H]5CN(c5cc(-c7ccccc7O)nnc5N)C6)ccn4)C3)CC2)C(C)(C)C)cc1 [Compound 243, (2S,4R)-1-((2S)-2-(2-(4-((1r,3S)-3-((4-(3-(3-amino-6-(2-hydroxyphenyl)pyridazin-4-yl)-3,8-diazabicyclo[3.2.1]octan-8-yl)pyridin-2-yl)oxy)cyclobutoxy)piperidin-1-yl)acetamido)-3,3-dimethylbutanoyl)-4-hydroxy-N-(4-(4-methylthiazol-5-yl)benzyl)pyrrolidine-2-carboxamide, tri-formic acid] | > 0.01 µM | > 75% | < 0.01 µM | A (“A” indicates maximum degradation ≥75%)

Continued, in another order:

Row | DC50 (HiBit-BRG1) | Dmax (HiBit-BRG1) | DC50 (HiBiT-BRM) | SMILES | BRM HiBit Degradation Maximum (%) (HiBiT-BRM)
8 | > 1 µM | < 50% | > 1 µM | Cc1ncsc1-c1ccc(CNC(=O)[C@@H]2C[C@@H](O)CN2C(=O)[C@@H](NC(=O)CCN2CC(OC3CCN(C(=O)c4ccc(CCOc5cc(-c6ccccc6O)nnc5N)cc4)CC3)C2)C(C)(C)C)cc1 [Compound 238, (2S,4R)-1-((S)-2-(3-(3-((1-(4-(2-((3-amino-6-(2-hydroxyphenyl)pyridazin-4-yl)oxy)ethyl)benzoyl)piperidin-4-yl)oxy)azetidin-1-yl)propanamido)-3,3-dimethylbutanoyl)-4-hydroxy-N-(4-(4-methylthiazol-5-yl)benzyl)pyrrolidine-2-carboxamide] | C (“C” indicates maximum degradation <50%)
9 | > 1 µM | < 50% | > 0.1 µM | Cc1ncsc1-c1ccc([C@H](C)NC(=O)[C@@H]2C[C@@H](O)CN2C(=O)[C@@H](c2cc(OCCNCCCCCCCCC(=O)NCc3ccc(CCOc4cc(-c5ccccc5O)nnc4N)cc3)no2)C(C)C)cc1 [Compound 239, (2S,4R)-1-((R)-2-(3-(2-((9-((4-(2-((3-amino-6-(2-hydroxyphenyl)pyridazin-4-yl)oxy)ethyl)benzyl)amino)-9-oxononyl)amino)ethoxy)isoxazol-5-yl)-3-methylbutanoyl)-4-hydroxy-N-((S)-1-(4-(4-methylthiazol-5-yl)phenyl)ethyl)pyrrolidine-2-carboxamide] | A (“A” indicates maximum degradation ≥75%)
10 | > 0.1 µM | > 75% | > 0.1 µM | Cc1ncsc1-c1ccc([C@H](C)NC(=O)[C@@H]2C[C@@H](O)CN2C(=O)[C@@H](c2cc(OCCN3CC4CN(C(=O)c5ccc(CCOc6cc(-c7ccccc7O)nnc6N)cc5)C4C3)no2)C(C)C)cc1 (stereo partly drawn) [Compound 240, (2S,4R)-1-((2R)-2-(3-(2-(6-(4-(2-((3-amino-6-(2-hydroxyphenyl)pyridazin-4-yl)oxy)ethyl)benzoyl)-3,6-diazabicyclo[3.2.0]heptan-3-yl)ethoxy)isoxazol-5-yl)-3-methylbutanoyl)-4-hydroxy-N-((S)-1-(4-(4-methylthiazol-5-yl)phenyl)ethyl)pyrrolidine-2-carboxamide] | A (“A” indicates maximum degradation ≥75%)
11 | > 1 µM | < 50% | > 1 µM | Cc1ncsc1-c1ccc(CNC(=O)[C@@H]2C[C@@H](O)CN2C(=O)[C@@H](NC(=O)CCN2CC3CN(C(=O)c4ccc(CCOc5cc(-c6ccccc6O)nnc5N)cc4)C3C2)C(C)(C)C)cc1 (stereo partly drawn) [Compound 241, (2S,4R)-1-((2S)-2-(3-(6-(4-(2-((3-amino-6-(2-hydroxyphenyl)pyridazin-4-yl)oxy)ethyl)benzoyl)-3,6-diazabicyclo[3.2.0]heptan-3-yl)propanamido)-3,3-dimethylbutanoyl)-4-hydroxy-N-(4-(4-methylthiazol-5-yl)benzyl)pyrrolidine-2-carboxamide] | C (“C” indicates maximum degradation <50%)
12 | > 1 µM | < 50% | > 1 µM | Cc1ncsc1-c1ccc(CNC(=O)[C@@H]2C[C@@H](O)CN2C(=O)[C@@H](NC(=O)CN2CCC(OC3CCN(CCC(=O)NCc4ccc(CCOc5cc(-c6ccccc6O)nnc5N)cc4)CC3)CC2)C(C)(C)C)cc1 [Compound 244, (2S,4R)-1-((S)-2-(2-(4-((1-(3-((4-(2-((3-amino-6-(2-hydroxyphenyl)pyridazin-4-yl)oxy)ethyl)benzyl)amino)-3-oxopropyl)piperidin-4-yl)oxy)piperidin-1-yl)acetamido)-3,3-dimethylbutanoyl)-4-hydroxy-N-(4-(4-methylthiazol-5-yl)benzyl)pyrrolidine-2-carboxamide] | A (“A” indicates maximum degradation ≥75%)
